# Test results from patent US10653672B2, “Myogenesis promotor, muscle atrophy inhibitor, medical composition and TAZ activator” (National University Corporation Tokyo Medical and Dental …, priority 2014, dated 2020).
# “And” between values parts separate entries of the source, which are not always exact repeats. Equal values may be shown once.
# Key:
# Pax3 reporter = experiment: Luciferase reporter assay, Pax3 reporter; format: cell-based; conditions: Mus musculus, C2C12, 24 h, C2C12 cells expressing reporter and TAZ WT, differentiation medium 24 hours
# Protocol: (§1) The effect and its degree on the activity of a reporter, derived from a transcription factor that interacts with TAZ in C2C12 cells, were evaluated. Specifically, C2C12 cells expressing luciferase reporters corresponding to MyoD, TEAD, SMAD and Pax3 and C2C12 cells expressing these luciferase reporters and TAZ were cultured in a culture medium added with IBS008738 or DMSO at a concentration of 10 μM, respectively. […] The line and the error bar indicate the average value and the standard error, *p<0.05, **p<0.01, ns refers to not significant.
# (§2) Transfection of the luciferase reporters was performed to the C2C12 cells after being plated at 12-well plates (1×10^5 cells/well) and cultured overnight. As the luciferase reporters, pGL3 Myo-184- (MyoD-), 8×GT-IIC-δ51LucII- (TEAD-), 9×CAGA-MLP-(SMAD-), and p(PRS-1/-4)3- (Pax3-) were transfected to the cells alone or with TAZ. These reporter vectors were from Keiji Miyazawa (Yamanashi University), Hiroshi Sasaki (Kumamoto University) and Hiroki Kurihara (The University of Tokyo).
# (§3) Immediately after the transfection, DMSO or IBS008738 was added at a concentration of 10 μM, respectively. After growing the cells to confluence, the cells were transferred to a differentiation medium with DMSO or IBS008738, and cultured for 24 hours before the luciferase assay.
# C2C12 cells [1] = experiment: Anti-MHC immunostaining of differentiating C2C12 cells; format: cell-based, mouse
# Protocol: (2) To a culture medium in which C2C12 cells were grown to confluence under growth condition, IBS008738 or DMSO was added. The C2C12 cells were fixed immediately after the addition of IBS008738 or DMSO, and at 24 hours, 48 hours or 72 hours after the addition of IBS008738 or DMSO under differentiation condition. The fixed C2C12 cells were immunostained with anti-MHC antibody. The cell nuclei were visualized with Hoechst 33342.
# (3) C2C12 cells were grown under growth condition for 24 hours in a culture medium with IBS008738 or DMSO at a concentration of 10 μM, respectively, and switched to differentiation condition to continue the cultivation. The C2C12 cells were fixed immediately after the completion of cultivation under growth condition, and at 24 hours, 48 hours and 72 hours after the switching to differentiation condition, respectively.
# C2C12 cells were passaged in a growth medium (DMEM containing 10% FBS) and differentiated in a differentiation medium (DMEM containing 2% horse serum (Invitrogen)).
# C2C12 cells [2] = experiment: Evaluation of muscle differentiation markers by immunoblotting; format: cell-based, mouse; conditions: 10 μM
# Protocol: (1) C2C12 cells were cultured for 24 hours under growth condition in a culture medium added with IBS008738 or DMSO at a concentration of 10 μM, and switched to differentiation condition and the cultivation was continued. The expression of markers indicating muscle differentiation was determined with a predetermined antibody, on the C2C12 cells immediately after the completion of cultivation under growth condition (0 h), 24 hours after switching to differentiation condition (24 h), 48 hours after switching to differentiation condition (48 h) and 72 hours after switching to differentiation condition (72 h), respectively. Tubulin was used as a loading control (FIG. 3A).
# C2C12 cells [3] = experiment: Immunofluorescence of endogenous MyoD and TAZ in C2C12 cells; format: cell-based, mouse; conditions: 10 μM
# Protocol: Immunostaining of endogenous MyoD and TAZ in C2C12 cells was performed at three stages, i.e., after being cultured in a medium added with IBS008738 or DMSO at a concentration of 10 μM under growth condition for 24 hours, after being cultured under differentiation condition for 24 hours, and after being cultured under differentiation condition for 72 hours (see FIG. 7B). Both MyoD and TAZ existed at each of the three stages. After being cultured under growth condition for 24 hours, MyoD and TAZ were diffusely distributed in the nuclei (top), but formed dots under differentiation condition. After being cultured under differentiation condition for 24 hours, some cells strongly expressed TAZ, whereas other cells expressed more MyoD (middle). After being cultured under differentiation condition for 72 hours, in the single-nuclear cells, TAZ expression decreased while MyoD was still expressed. In the multi-nuclear cells, both TAZ and MyoD were expressed and colocalized in the nuclei (bottom). […] However, at 24 hours under differentiation condition, colocalization of TAZ and MyoD in the single-nuclear cells and generation of cells with two or three nuclei were promoted in the case with IBS008738 as compared with the case with DMSO (middle). […] The immunostaining and the immunofluorescence analysis were performed by the method described in Exp Cell Res 313:1484-1495. The line in the figures is 50 μm.
# C2C12 cells [4] = experiment: Proliferation of C2C12 cells by MTT method; format: cell-based, mouse; conditions: for Relative cell proliferation: growth condition, day 1 as 1
# Protocol: In order to examine whether IBS008738 as an effect on the proliferation of cells, C2C12 cells were cultured under growth condition for 5 days in a medium added with IBS008738 at 0 μM (not added), 0.1 μM, 1 μM and 10 μM, respectively, and the number of the cells was counted each day by MTT (3-(4, 5-dimethylthiazol-2-yl)-2, 5-diphenyl tetrazolium bromide) method. The counting was performed three times, and the obtained numbers were relativized with the number of day 1 as 1.
# SMAD reporter = experiment: Luciferase reporter assay, SMAD reporter; format: cell-based; conditions: Mus musculus, C2C12, 24 h, C2C12 cells expressing reporter and TAZ WT, differentiation medium 24 hours
# Protocol: as §1, §2, §3
structure (smiles),measurement,setting,value
Cc1ccc(-n2cnc(/N=C/N3CCOCC3)c2C(=O)c2ccccc2)cc1 [exemplary compound 1],fold induction at 10 µM,Pax3 reporter,0.8
same,cell differentiation compared with DMSO,"C2C12 cells [1]; 10 μM, 24 hours under growth condition, then differentiation condition up to 72 hours",more developed
same,cell differentiation and MHC expression compared with DMSO,"C2C12 cells [1]; added at confluence, fixed at 0, 24, 48 or 72 hours under differentiation condition, anti-MHC antibody",more significant
same,decrease in the expression of Pax7 compared with DMSO,C2C12 cells [2],faster to decrease
same,expression of MHC compared with DMSO,C2C12 cells [2],became significant on days 3 and 4
same,expression of TAZ,C2C12 cells [2],became most significant on day 2
same,expression of myogenin compared with DMSO,C2C12 cells [2],became stronger after day 2
same,expression of MyoD compared with DMSO,C2C12 cells [2]; day 1 after the addition,slightly higher
same,colocalization of TAZ and MyoD in the single-nuclear cells and generation of cells with two or three nuclei,"C2C12 cells [3]; 24 hours under differentiation condition, compared with DMSO",promoted
same,multinuclear cells,"C2C12 cells [3]; 72 hours under differentiation condition, compared with DMSO",remarkably increased
same,MyoD and TAZ immunostaining compared with DMSO,C2C12 cells [3]; growth condition 24 hours,no significant difference from the case with DMSO was not observed
same,effect on the proliferation of C2C12 cells,"C2C12 cells [4]; 0.1 μM, 1 μM and 10 μM, 5 days",does not have an effect
same,Relative cell proliferation,"C2C12 cells [4]; 0.1 μM, 24 h",1.00
same,Relative cell proliferation,"C2C12 cells [4]; 0.1 μM, 48 h, listed as IBS008738",2.09 and 2.06 and 2.18
same,Relative cell proliferation,"C2C12 cells [4]; 0.1 μM, 72 h, listed as IBS008738",5.37 and 4.74 and 4.59
same,Relative cell proliferation,"C2C12 cells [4]; 0.1 μM, 120 h, listed as IBS008738",9.01 and 8.76 and 8.78
same,Relative cell proliferation,"C2C12 cells [4]; 1 μM, 24 h",1.00
same,Relative cell proliferation,"C2C12 cells [4]; 1 μM, 48 h, listed as IBS008738",2.41 and 2.05 and 2.07
same,Relative cell proliferation,"C2C12 cells [4]; 1 μM, 72 h, listed as IBS008738",5.11 and 4.54 and 4.46
same,Relative cell proliferation,"C2C12 cells [4]; 1 μM, 120 h, listed as IBS008738",9.13 and 8.80 and 8.79
same,Relative cell proliferation,"C2C12 cells [4]; 10 μM, 24 h",1.00
same,Relative cell proliferation,"C2C12 cells [4]; 10 μM, 48 h, listed as IBS008738",2.09 and 2.07
same,Relative cell proliferation,"C2C12 cells [4]; 10 μM, 72 h, listed as IBS008738",4.70 and 4.90 and 4.92
same,Relative cell proliferation,"C2C12 cells [4]; 10 μM, 120 h, listed as IBS008738",8.63 and 8.99 and 8.56
same,fold induction at 10 µM,SMAD reporter,2.09
